Drawing on patent publication US8163768B2, “1,4-dihydropyridine-fused heterocycles, process for preparing the same, use and compositions containing them” (Aventis Pharma S.A.., priority 2005, dated 2012), this text covers IC50 and melting point for 20 molecules.

The target of one data set is T1, Aurora2 (Aurora-A) (Homo sapiens, UniProt O14965).
T1 construct: Aurora-A: the full length recombinant protein including an N-terminal poly-histidine tail has been expressed in E. coli; poly-histidine (N); made in house; host or cells: E. coli
T1 sequence (O14965 1-403): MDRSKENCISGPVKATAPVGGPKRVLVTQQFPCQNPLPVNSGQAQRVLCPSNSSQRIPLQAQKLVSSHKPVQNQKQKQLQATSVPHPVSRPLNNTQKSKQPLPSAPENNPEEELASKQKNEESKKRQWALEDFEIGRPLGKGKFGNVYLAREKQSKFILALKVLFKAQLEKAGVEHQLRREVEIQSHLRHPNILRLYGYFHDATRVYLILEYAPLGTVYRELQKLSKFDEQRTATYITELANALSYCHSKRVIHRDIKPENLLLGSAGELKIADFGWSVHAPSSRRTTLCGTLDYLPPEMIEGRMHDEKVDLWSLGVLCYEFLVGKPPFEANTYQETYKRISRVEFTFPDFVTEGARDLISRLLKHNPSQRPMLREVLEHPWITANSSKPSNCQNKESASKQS
Briefly: Aurora 2 (Aurora A) kinase radioactivity scintillation assay using nickel chelate Flash plates. Type of data set: biochemical. The note with it: 10 nM Aurora-A, 500 nM NuMA substrate, 1 μM ATP with [33P] ATP, 10 mM MgCl2, 30 minutes, 37° C. A digest of the protocol: (§1)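 10 nM Aurora-B or Aurora-A with 500 nM NuMA-His substrate, 1 μM ATP plus [³³P]ATP, in 50 mM NaCl, 1 mM DTT and 5 mM (B) or 10 mM (A) MgCl2, 30 min at 37° C on nickel-chelate plates. Incorporated ³³P counted after washing, background-subtracted; IC50 fitted from % inhibition versus concentration.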

In the next data set the target is T2, Aurora1 (Aurora-B) (Homo sapiens, UniProt Q96GD4).
T2 construct: Aurora-B: the full length protein (His tagged in N-terminal) has been co expressed in SF9 cells; poly-histidine (N); made in house; host or cells: SF9 cells
The data set is described as follows: Aurora 1 (Aurora B) kinase radioactivity scintillation assay using nickel chelate Flash plates. The note with it: 10 nM Aurora-B (co expressed with C3 fragment of INCEP), 500 nM NuMA substrate, 1 μM ATP with [33P] ATP, 5 mM MgCl2, 30 minutes, 37° C. Type of data set: biochemical. In short, it runs like this:
as §1

Structures can show the parent of a compound that is named as a salt.

T2 sequence (Q96GD4 whole entry, species assumed): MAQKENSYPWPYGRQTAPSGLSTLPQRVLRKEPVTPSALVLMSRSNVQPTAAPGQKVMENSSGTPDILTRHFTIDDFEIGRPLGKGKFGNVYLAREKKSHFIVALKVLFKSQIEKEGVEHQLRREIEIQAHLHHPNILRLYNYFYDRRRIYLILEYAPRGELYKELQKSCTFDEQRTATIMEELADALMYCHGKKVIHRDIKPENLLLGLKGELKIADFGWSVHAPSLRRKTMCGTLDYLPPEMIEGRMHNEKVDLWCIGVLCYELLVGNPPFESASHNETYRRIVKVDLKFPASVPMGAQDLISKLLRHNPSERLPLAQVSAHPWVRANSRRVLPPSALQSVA
T2 sequence (Q9NQS7 821-918 partner limits assumed, species assumed): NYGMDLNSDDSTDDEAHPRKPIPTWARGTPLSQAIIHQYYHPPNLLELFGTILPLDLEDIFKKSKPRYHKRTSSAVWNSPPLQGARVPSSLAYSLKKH

With `CCOC(=O)c1[nH]cc2c1NC1=C(C(=O)CCC1)C2c1ccc(Sc2nc3cc(OC)ccc3[nH]2)o1` (stereo not shown) [Example 110, 9-[5-(5-Methoxy-1H-benzimidazol-2-ylsulfanyl)-furan-2-yl]-8-oxo-4,5,6,7,8,9-hexahydro-2H-pyrrolo[3,4-b]quinoline-3-carboxylic acid ethyl ester], the melting point (commonly the temperature, or range, at which the solid turns liquid) was 140 °C. Also, the IC50 (usually the concentration that gives 50% inhibition) at Aurora2 (Aurora-A) was 21 nM. Besides, the half-inhibitory concentration (IC50) on Aurora1 (Aurora-B) amounted to 8 nM.
`CCOC(=O)c1[nH]cc2c1NC1=C(C(=O)CCC1)C2c1ccc(Sc2nc3cccnc3[nH]2)o1` (stereo not shown) [Example 112, 9-[5-(3H-Imidazo[4,5-b]pyridin-2-ylsulfanyl)-furan-2-yl]-8-oxo-4,5,6,7,8,9-hexahydro-2H-pyrrolo[3,4-b]quinoline-3-carboxylic acid ethyl ester]: the melting point lay in the range of 190 to 202 °C. At Aurora1 (Aurora-B), the IC50 came out at 12 nM.
Consider `CCOC(=O)c1[nH]cc2c1NC1=C(C(=O)CCC1)C2c1cnc(Sc2nc3ccccc3[nH]2)s1` (stereo not shown) [Example 118, 9-[2-(1H-Benzimidazol-2-ylsulfanyl)-thiazol-5-yl]-8-oxo-4,5,6,7,8,9-hexahydro-2H-pyrrolo[3,4-b]quinoline-3-carboxylic acid ethyl ester], for which the melting point came out at 194 °C.
Regarding `CCOC(=O)c1[nH]cc2c1NC1=C(C(=O)CCC1)C2c1ccc(Sc2nc3cc(Cl)c(C)cc3[nH]2)o1` (stereo not shown) [Example 133, 9-[5-(5-Chloro-6-methyl-1H-benzimidazol-2-ylsulfanyl)-furan-2-yl]-8-oxo-4,5,6,7,8,9-hexahydro-2H-pyrrolo[3,4-b]quinoline-3-carboxylic acid ethyl ester], the IC50 on Aurora2 (Aurora-A) was 31 nM; at Aurora1 (Aurora-B), 5 nM.
For `CCOC(=O)c1[nH]cc2c1NC1=C(C(=O)CN(C(=O)OC(C)(C)C)C1)C2c1ccc(Sc2nc3cc(Cl)c(C)cc3[nH]2)o1` (stereo not shown) [Example 134], in that order: 525 nM and 47 nM.
For `CCOC(=O)c1[nH]cc2c1NC1=C(C(=O)CNC1)C2c1ccc(Sc2nc3cc(Cl)c(C)cc3[nH]2)o1` (stereo not shown) [Example 135, 9-[5-(5-Chloro-6-methyl-1H-benzimidazol-2-ylsulfanyl)-furan-2-yl]-8-oxo-4,5,6,7,8,9-hexahydro-2H-pyrrolo[3,4-b]-1,7-naphthyridine-3-carboxylic acid ethyl ester hydrochloride], in that order: 120 nM and 22 nM.
For `CCOC(=O)c1[nH]cc2c1NC1=C(C(=O)CCC1)C2c1ccc(Sc2nc3cc(Cl)cc(C)c3[nH]2)o1` (stereo not shown) [Example 136, 9-[5-(5-Chloro-7-methyl-1H-benzimidazol-2-ylsulfanyl)-furan-2-yl]-8-oxo-4,5,6,7,8,9-hexahydro-2H-pyrrolo[3,4-b]quinoline-3-carboxylic acid ethyl ester], in that order: 18 nM and 12 nM.
Take `CCOC(=O)c1[nH]cc2c1NC1=C(C(=O)CN(C(=O)OC(C)(C)C)C1)C2c1ccc(Sc2nc3cc(Cl)cc(C)c3[nH]2)o1` (stereo not shown) [Example 137, 6-tert-Butyloxy-9-[5-(5-chloro-7-methyl-1H-benzimidazol-2-ylsulfanyl)-furan-2-yl]-8-oxo-2,4,5,7,8,9-hexahydro-pyrrolo[3,4-b]-1,7-naphthyridine-3-carboxylic acid ethyl ester]: the half-maximal inhibitory concentration (IC50) on Aurora2 (Aurora-A) is 205 nM; on Aurora1 (Aurora-B) it was 93 nM.
For `CCOC(=O)c1[nH]cc2c1NC1=C(C(=O)CNC1)C2c1ccc(Sc2nc3cc(Cl)cc(C)c3[nH]2)o1` (stereo not shown) [Example 138, 9-[5-(5-Chloro-7-methyl-1H-benzimidazol-2-ylsulfanyl)-furan-2-yl]-8-oxo-4,5,6,7,8,9-hexahydro-2H-pyrrolo[3,4-b]-1,7-naphthyridine-3-carboxylic acid ethyl ester hydrochloride], the results for the half-maximal inhibitory concentration (IC50) on Aurora2 (Aurora-A) and at Aurora1 (Aurora-B) were 8 nM and 6 nM, respectively.
For `CCOC(=O)c1[nH]cc2c1NC1=C(C(=O)CCC1)C2c1ccc(Sc2nc3cc4c(cc3[nH]2)OC(F)(F)O4)o1` (stereo not shown) [Example 139, 9-[5-(2,2-Difluoro-5H-[1,3]dioxolo[4′,5′:4,5]benzo[1,2-d]imidazol-6-ylsulfanyl)-furan-2-yl]-8-oxo-4,5,6,7,8,9-hexahydro-2H-pyrrolo[3,4-b]quinoline-3-carboxylic acid ethyl ester], in that order: 124 nM and 19 nM.
Regarding `CCOC(=O)c1[nH]cc2c1NC1=C(C(=O)CN(C(=O)OC(C)(C)C)C1)C2c1ccc(Sc2nc3cc4c(cc3[nH]2)OC(F)(F)O4)o1` (stereo not shown) [Example 140], the IC50 amounted to 3900 nM at Aurora2 (Aurora-A) and 1660 nM on Aurora1 (Aurora-B).
For `CCOC(=O)c1[nH]cc2c1NC1=C(C(=O)CNC1)C2c1ccc(Sc2nc3cc4c(cc3[nH]2)OC(F)(F)O4)o1` (stereo not shown) [Example 141, 9-[5-(2,2-Difluoro-5H-[1,3]dioxolo[4′,5′:4,5]benzo[1,2-d]imidazol-6-ylsulfanyl)-furan-2-yl]-8-oxo-4,5,6,7,8,9-hexahydro-2H-pyrrolo[3,4-b]-1,7-naphthyridine-3-carboxylic acid ethyl ester hydrochloride], in that order: 87 nM and 20 nM.
For `CCOC(=O)c1[nH]cc2c1NC1=C(C(=O)CNC1)C2c1ccc(Sc2nc3cc(F)cc(F)c3[nH]2)o1` (stereo not shown) [Example 143, 9-[5-(5,7-Difluoro-1H-benzimidazol-2-ylsulfanyl)-furan-2-yl]-8-oxo-4,5,6,7,8,9-hexahydro-2H-pyrrolo[3,4-b]-1,7-naphthyridine-3-carboxylic acid ethyl ester hydrochloride], in that order: 26 nM and 7 nM.
With `O=C1CCCC2=C1C(c1ccc(Sc3nc4cc(F)cc(F)c4[nH]3)o1)c1c[nH]nc1N2` (stereo not shown) [Example 144, 4-[5-(5,7-Difluoro-1H-benzimidazol-2-ylsulfanyl)-furan-2-yl]-2,4,6,7,8,9-hexahydro-pyrazolo[3,4-b]quinolin-5-one], the half-maximal inhibitory concentration (IC50) at Aurora2 (Aurora-A) is 28 nM; on Aurora1 (Aurora-B) it was 6 nM.
For `O=C1CNCC2=C1C(c1ccc(Sc3nc4cc(F)cc(F)c4[nH]3)o1)c1c[nH]nc1N2` (stereo not shown) [Example 145, 4-[5-(5,7-Difluoro-1H-benzimidazol-2-ylsulfanyl)-furan-2-yl]-2,4,6,7,8,9-hexahydro-pyrazolo[3,4b]-1,7-naphthyridin-5-one hydrochloride], in that order: 131 nM and 16 nM.
For `CCOC(=O)c1[nH]cc2c1NC1=C(C(=O)CCC1)C2c1ccc(Sc2nc3cc(F)c(Cl)cc3[nH]2)o1` (stereo not shown) [Example 146, 9-[5-(6-Chloro-5-fluoro-1H-benzimidazol-2-ylsulfanyl)-furan-2-yl]-8-oxo-4,5,6,7,8,9-hexahydro-2H-pyrrolo[3,4-b]quinoline-3-carboxylic acid ethyl ester] the same measures were 41 nM and 6 nM.
For `CCOC(=O)c1[nH]cc2c1NC1=C(C(=O)CNC1)C2c1ccc(Sc2nc3cc(F)c(Cl)cc3[nH]2)o1` (stereo not shown) [Example 147, 9-[5-(6-Chloro-5-fluoro-1H-benzimidazol-2-ylsulfanyl)-furan-2-yl]-8-oxo-4,5,6,7,8,9-hexahydro-2H-pyrrolo[3,4-b]-1,7-naphthyridine-3-carboxylic acid ethyl ester hydrochloride] the same measures were 67 nM and 9 nM.
With `CCOC(=O)c1[nH]cc2c1NC1=C(C(=O)CNC1)C2c1ccc(Sc2nc3cc(F)ccc3[nH]2)o1` (stereo not shown) [Example 149, 9-[5-(5-Fluoro-1H-benzimidazol-2-ylsulfanyl)-furan-2-yl]-8-oxo-4,5,6,7,8,9-hexahydro-2H-pyrrolo[3,4-b]-1,7-naphthyridine-3-carboxylic acid ethyl ester hydrochloride], the IC50 on Aurora2 (Aurora-A) was found to be 55 nM; at Aurora1 (Aurora-B), 11 nM.
As for `CCOC(=O)c1[nH]cc2c1NC1=C(C(=O)CCC1)C2c1ccc(Sc2nc3cc(OC(F)(F)F)ccc3[nH]2)o1` (stereo not shown) [Example 150, 8-Oxo-9-[5-(5-trifluoromethoxy-1H-benzimidazol-2-ylsulfanyl)-furan-2-yl]-4,5,6,7,8,9-hexahydro-2H-pyrrolo[3,4-b]quinoline-3-carboxylic acid ethyl ester], the IC50 came out at 29 nM on Aurora2 (Aurora-A) and 19 nM at Aurora1 (Aurora-B).
For the molecule `CCOC(=O)c1[nH]cc2c1NC1=C(C(=O)CNC1)C2c1ccc(Sc2nc3cc(OC(F)(F)F)ccc3[nH]2)o1` (stereo not shown) [Example 151, 8-Oxo-9-[5-(5-trifluoromethoxy-1H-benzimidazol-2-ylsulfanyl)-furan-2-yl]-4,5,6,7,8,9-hexahydro-2H-pyrrolo[3,4-b][1,7]naphthyridine-3-carboxylic acid ethyl ester hydrochloride], the IC50 on Aurora2 (Aurora-A) is 60 nM; at Aurora1 (Aurora-B), 14 nM.
